Test results published in PMC11767673 (2024).

Tests used:
[1] = test system: OR7 aptamer (DNA, aptamer) CAAGGAAAATCCTTCAACGAAGTGGG; test: transmembrane electrochemical impedance spectroscopy (commercial potentiostat), Langmuir fit; conditions: 137 mM NaCl, 2.7 mM KCl, 5 mM MgCl2; PBS pH 7.4, 3% DMSO, room temperature; aptamer immobilised on membrane
[2] = test system: OR7 aptamer (DNA, aptamer) CAAGGAAAATCCTTCAACGAAGTGGG; test: transmembrane electrochemical impedance spectroscopy (ADuCM350 impedance reader), Langmuir fit; conditions: 137 mM NaCl, 2.7 mM KCl, 5 mM MgCl2; PBS pH 7.4, 3% DMSO, room temperature; aptamer immobilised on membrane
[3] = test system: OR7 aptamer (DNA, aptamer) CAAGGAAAATCCTTCAACGAAGTGGG; test: transmembrane electrochemical impedance spectroscopy (potentiostat and impedance reader); conditions: 137 mM NaCl, 2.7 mM KCl, 5 mM MgCl2; PBS pH 7.4, 3% DMSO, room temperature; aptamer immobilised on membrane; control, highest concentration not given

## CCN(CC)Cc1cc(Nc2ccnc3cc(Cl)ccc23)ccc1O
[1]
  KD: 2 nM
[2]
  KD: 4 nM

## CCN(CC)CCCC(C)Nc1ccnc2cc(Cl)ccc12 (stereo not drawn)
[3]
  binding: no
